Some test systems named below: COLO 205 colon; HCT-116 colon; HCT-15 colon; HOP-62 NSCLC; NCI-H460 lung; OVCAR-3 ovarian; OVCAR-4 ovarian; SK-MEL-28 melanoma; SK-OV-3 ovarian; SNB-75 CNS.
Common to all, as to experiment: inhibition of tumour cell growth, NCI panel, 48 h

Eight compounds from PubChem BioAssay (NCI) can be followed below.

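Grown in 96-well plates, cells were treated for 48 hours with each compound at five concentrations. Insufficient inhibition: endpoint recorded as highest concentration tested. The concentration for 50% growth inhibition is given as GI50. TGI denotes the concentration required for complete inhibition of growth.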

With `c1ccc(-c2nnc(Nc3ccc4c(c3)OCCO4)o2)c(NCc2ccncc2)c1`, the GI50 in the assay with COLO 205 colon is 0.0286 µM; in the assay with HCT-116 colon it was 0.0282 µM; in the assay with HCT-15 colon it was 0.0369 µM; in the assay on HOP-62 NSCLC, 0.0297 µM; in the assay on NCI-H460 lung it was 0.0313 µM; in the assay with OVCAR-3 ovarian, 0.021 µM. Moreover, the GI50 in the assay on OVCAR-4 ovarian was 0.0818 µM; with SK-MEL-28 melanoma it was 0.0411 µM; in the assay on SK-OV-3 ovarian, 0.0191 µM; in the assay with SNB-75 CNS, 0.0125 µM. Moreover, the TGI with COLO 205 colon is 0.076 µM; in the assay with HCT-116 colon, 11.8 µM; with HCT-15 colon it was greater than 100 µM; in the assay with HOP-62 NSCLC it was 19.9 µM; in the assay on NCI-H460 lung, 15.2 µM; in the assay on OVCAR-3 ovarian it was 0.0504 µM. Besides, the TGI in the assay on OVCAR-4 ovarian was 21.9 µM; with SK-MEL-28 melanoma it was 39 µM; with SK-OV-3 ovarian, 0.0856 µM; in the assay with SNB-75 CNS it was 12.1 µM.
For the compound `CCN(CC)CCCOc1cc(O)c2c(=O)cc(-c3ccccc3)oc2c1`, the GI50 is 4.21 µM in the assay on COLO 205 colon; 3.94 µM in the assay on HCT-15 colon; 5.29 µM in the assay on HOP-62 NSCLC; 4.2 µM with NCI-H460 lung; 15.5 µM with OVCAR-3 ovarian; 5.94 µM with OVCAR-4 ovarian. The GI50 in the assay with SK-MEL-28 melanoma is 3.42 µM; with SK-OV-3 ovarian, 14.3 µM; with SNB-75 CNS, 8.36 µM. In addition, the TGI in the assay on COLO 205 colon was found to be 15.5 µM; in the assay on HCT-15 colon it was 14.6 µM; in the assay on HOP-62 NSCLC, 19.4 µM; in the assay with NCI-H460 lung, 14.6 µM; in the assay with OVCAR-3 ovarian, 34.1 µM; in the assay with OVCAR-4 ovarian, 25.1 µM. Also, the TGI amounted to 17 µM in the assay on SK-MEL-28 melanoma, 28 µM in the assay with SK-OV-3 ovarian and 22.3 µM in the assay on SNB-75 CNS.
Regarding `CO/N=C(/COc1c(-c2ccccc2)oc2ccccc2c1=O)c1ccc(OC)cc1`, the GI50 with COLO 205 colon was greater than 100 µM; in the assay on HCT-116 colon, greater than 100 µM; with HCT-15 colon, greater than 100 µM; in the assay on HOP-62 NSCLC, greater than 100 µM; in the assay on OVCAR-3 ovarian, greater than 100 µM; in the assay on OVCAR-4 ovarian, 81.4 µM. For the same compound, the GI50 is greater than 100 µM in the assay on SK-MEL-28 melanoma, greater than 100 µM with SK-OV-3 ovarian and 58.7 µM with SNB-75 CNS. Moreover, the TGI in the assay on COLO 205 colon, with HCT-116 colon, in the assay with HCT-15 colon, with HOP-62 NSCLC, in the assay on OVCAR-3 ovarian and in the assay with OVCAR-4 ovarian was greater than 100 µM throughout. Moreover, the TGI with SK-MEL-28 melanoma, in the assay with SK-OV-3 ovarian and in the assay on SNB-75 CNS was greater than 100 µM in each case.
Consider `Cc1nc(-c2nc(C)c(C(=O)NN(C)C)s2)sc1C(=O)NN(C)C`, for which the TGI in the assay on COLO 205 colon is 53.9 µM; in the assay with HCT-15 colon, greater than 100 µM; with HOP-62 NSCLC, greater than 100 µM; in the assay on NCI-H460 lung, greater than 100 µM; with OVCAR-3 ovarian, greater than 100 µM; with OVCAR-4 ovarian, greater than 100 µM. Moreover, the TGI in the assay on SK-MEL-28 melanoma, in the assay with SK-OV-3 ovarian and in the assay with SNB-75 CNS was greater than 100 µM in each case.
For `O=Cc1ccc(Oc2c3ccccc3nc3occc23)cc1`, the GI50 in the assay on COLO 205 colon was 21.8 µM; in the assay with HCT-116 colon, 15.3 µM; in the assay on HOP-62 NSCLC it was 14.8 µM; in the assay with NCI-H460 lung it was 20.2 µM; with OVCAR-3 ovarian, 2.59 µM; in the assay on OVCAR-4 ovarian it was 15.8 µM. Besides, the GI50 was 17.9 µM in the assay on SK-MEL-28 melanoma, 21.6 µM in the assay with SK-OV-3 ovarian and 19.3 µM in the assay on SNB-75 CNS. For the same compound, the TGI in the assay with COLO 205 colon turned out to be 63 µM; in the assay on HCT-116 colon, 28.7 µM; in the assay on HOP-62 NSCLC, 37.9 µM; in the assay on NCI-H460 lung, 48.2 µM; in the assay on OVCAR-3 ovarian, 11.3 µM; with OVCAR-4 ovarian, 52.9 µM. The TGI is 34.3 µM in the assay with SK-MEL-28 melanoma, 57 µM in the assay on SK-OV-3 ovarian and 85.2 µM in the assay on SNB-75 CNS.
In the case of `COc1ccc(/C=C2\SC(c3ccc(OC)cc3)N(NC(=O)Cc3ccccc3)C2=O)cc1` (centres undefined), the TGI in the assay with COLO 205 colon, with HCT-116 colon, in the assay with HCT-15 colon, with HOP-62 NSCLC, in the assay with NCI-H460 lung and with OVCAR-4 ovarian was greater than 100 µM throughout. Besides, the TGI with SK-MEL-28 melanoma, in the assay on SK-OV-3 ovarian and in the assay on SNB-75 CNS was greater than 100 µM in each case.
On to `C[C@]12CCC3c4ccc(O)cc4CCC3C1Cc1ccc(O)cc12` (some centres undefined), for which the GI50 was 12.1 µM with COLO 205 colon; 3.52 µM in the assay on HCT-116 colon; 4.51 µM in the assay on HCT-15 colon; 4.88 µM in the assay with NCI-H460 lung; 5.71 µM with OVCAR-3 ovarian; 15.3 µM with OVCAR-4 ovarian. Moreover, the GI50 in the assay with SK-MEL-28 melanoma is 8.72 µM; in the assay on SK-OV-3 ovarian, 14.3 µM; in the assay on SNB-75 CNS it was 6.35 µM. Further, the TGI with COLO 205 colon worked out at 26 µM; in the assay with HCT-116 colon, 13.2 µM; in the assay on HCT-15 colon it was 19 µM; with NCI-H460 lung it was 18.2 µM; in the assay on OVCAR-3 ovarian, 26.5 µM; in the assay with OVCAR-4 ovarian, 92.7 µM. Besides, the TGI came to 22.7 µM in the assay on SK-MEL-28 melanoma, 36.4 µM with SK-OV-3 ovarian and 31.2 µM in the assay on SNB-75 CNS.
With `NCCCC1NC(=O)/C(=C(O)/C=C/C2CCC[C@@H]2CC2SCCS2)C1=O` (some centres undefined), the TGI in the assay with COLO 205 colon, in the assay with HCT-116 colon, with HOP-62 NSCLC, with NCI-H460 lung, in the assay on OVCAR-3 ovarian and with OVCAR-4 ovarian was greater than 100 µM throughout. For the same compound, the TGI in the assay with SK-MEL-28 melanoma, in the assay with SK-OV-3 ovarian and with SNB-75 CNS was greater than 100 µM each time.
